Laboratory results published in patent US20060205949A1, “Crystalline forms of a biphenyl compound” (THERAVANCE, INC., priority 2005, published 2006).

What was measured:
[1] = target: T1, hM2 receptor (CHO-K1 cells) (Homo sapiens, UniProt P08172); assay: Blockade of agonist-mediated inhibition of cAMP accumulation; assay type: cell-based; details: CHO-K1 cells expressing the hM2 receptor; this or a similar assay; read-out: Ki value for blockade of oxotremorine-inhibition of forskolin-mediated cAMP accumulation
T1 construct: expressed in transfected cells; host or cells: CHO-K1 cells
T1 sequence (P08172 1-466): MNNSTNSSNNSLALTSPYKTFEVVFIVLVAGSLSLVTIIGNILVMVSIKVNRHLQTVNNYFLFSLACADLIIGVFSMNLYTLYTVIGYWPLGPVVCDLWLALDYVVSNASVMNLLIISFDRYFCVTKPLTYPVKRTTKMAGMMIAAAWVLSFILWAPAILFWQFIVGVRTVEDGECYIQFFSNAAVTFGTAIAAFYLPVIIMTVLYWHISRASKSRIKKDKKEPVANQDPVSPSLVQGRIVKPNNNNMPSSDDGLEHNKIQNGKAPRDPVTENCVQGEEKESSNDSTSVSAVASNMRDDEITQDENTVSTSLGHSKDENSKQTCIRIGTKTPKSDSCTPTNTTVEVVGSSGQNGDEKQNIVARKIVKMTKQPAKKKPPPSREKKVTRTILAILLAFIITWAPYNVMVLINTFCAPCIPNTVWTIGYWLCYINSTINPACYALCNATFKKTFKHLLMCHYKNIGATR
Description: In this assay, the functional potency of a test compound was determined by measuring the ability of the test compound to block oxotremorine-inhibition of forskolin-mediated cAMP accumulation in CHO-K1 cells expressing the hM2 receptor. cAMP assays were performed in a radioimmunoassay format using the Flashplate Adenylyl Cyclase Activation Assay System with ^125I-cAMP (NEN SMP004B, PerkinElmer Life Sciences Inc., Boston, Mass.), according to the manufacturer's instructions.
Cells were rinsed once with dPBS and lifted with Trypsin-EDTA solution (0.05% trypsin/0.53 mM EDTA) as described in the Cell Culture and Membrane Preparation section above. The detached cells were washed twice by centrifugation at 650×g for five minutes in 50 mLs dPBS. The cell pellet was then re-suspended in 10 mL dPBS, and the cells were counted with a Coulter ZI Dual Particle Counter (Beckman Coulter, Fullerton, Calif.). […]
To measure the ability of a test compound to block oxotremorine-inhibited AC activity, 25 μL forskolin and oxotremorine (25 μM and 5 μM final concentrations, respectively, diluted in dPBS) 25 μL diluted test compound, and 50 μL cells were added to remaining assay wells. […] Plates were sealed, incubated overnight at room temperature and counted the next morning on a PerkinElmer TopCount liquid scintillation counter (PerkinElmer Inc., Wellesley, Mass.). […]

[2] = target: T1, hM2 receptor (CHO-K1 cells); assay: Blockade of agonist-mediated [35S]GTPγS binding; assay type: biochemical; details: CHO-K1 cells expressing the hM2 receptor; this or a similar assay; read-out: Ki value for blockade of oxotremorine-stimulated [35S]GTPγS binding
Description: In a second functional assay, the functional potency of test compounds can be determined by measuring the ability of the compounds to block oxotremorine-stimulated [^35S]GTPγS binding in CHO-K1 cells expressing the hM2 receptor.
At the time of use, frozen membranes were thawed and then diluted in assay buffer with a final target tissue concentration of 5-10 μg protein per well. The membranes were briefly homogenized using a Polytron PT-2100 tissue disrupter and then added to the assay plates. The EC90 value (effective concentration for 90% maximal response) for stimulation of [^35S]GTPγS binding by the agonist oxotremorine was determined in each experiment.
The assay plates were then incubated at 37° C. for 60 minutes. The assay plates were filtered over 1% BSA-pretreated GF/B filters using a PerkinElmer 96-well harvester. The plates were rinsed with ice-cold wash buffer for 3×3 seconds and then air or vacuum dried. Microscint-20 scintillation liquid (50 μL) was added to each well, and each plate was sealed and radioactivity counted on a topcounter (PerkinElmer). Data were analyzed by nonlinear regression analysis with the GraphPad Prism Software package (GraphPad Software, Inc., San Diego, Calif.) using the non-linear regression, one-site competition equation. […]

Compound: O=C(CCN1CCC(OC(=O)Nc2ccccc2-c2ccccc2)CC1)NCCCCCNCc1ccc(O)cc1 [compound of formula I, biphenyl-2-ylcarbamic acid 1-{2-[5-(4-hydroxybenzylamino)pentylcarbamoyl]ethyl}piperidin-4-yl ester]
- Ki [1]: < 0.01 µM
- Ki [2]: < 0.01 µM
